Data taken from US20250346602A1, “LACTAM SUBSTITUTED IMIDAZOPYRIDAZINE IL-17A MODULATORS AND USES THEREOF” (DICE ALPHA, INC., priority 2022, published 2025).

Target: T1, IL-17A/A (Homo sapiens, UniProt Q16552)
T1 construct: purchased Genscript Z03228
T1 sequence (Q16552 24-155): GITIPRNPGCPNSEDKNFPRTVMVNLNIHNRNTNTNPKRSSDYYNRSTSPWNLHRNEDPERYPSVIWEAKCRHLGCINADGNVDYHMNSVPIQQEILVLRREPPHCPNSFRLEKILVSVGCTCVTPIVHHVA
Assay: IL-17A/A HEK-Blue cell assay
Type: cell-based
Settings: HEK-Blue IL-17A reporter cell line (HEK 293), IL-17A/A stimulation, 20 hours incubation, SEAP read at A630
Procedure: The HEK-Blue IL-17A reporter cell line (Fisher #NC1408637) was used for cell-based IL-17A/A inhibition assays. Cells were grown and prepared for assays according to the manufacturer's instructions. This cell line consists of HEK 293 cells that were designed to expressed IL-17RA, IL-17RC, and the ActI adapter molecule, the combination of which, when stimulated by IL-17A/A activates a NFκB promoter and drives expression of a recombinant Secreted Alkaline Phosphatase (SEAP) gene protein. Media from the cells is then added to a development reagent (Quanti-Blue Substrate, Fisher #NC9711613), and read at A630.
Compounds were titrated in DMSO, with a top final compound concentration of 10 uM, 1 uM, or 0.3 uM, and added to the cells immediately before adding IL-17A/A (Genscript #Z03228). The cells, compound, and IL-17A/A were then incubated for 20 hours before media was removed for SEAP analysis. The resulting inhibition curve was then analyzed using Graphpad Prism 7.0, and IC50 values were determined using a 4-parameter nonlinear fit. DMSO was added to a universal final concentration of 0.1% to optimize background.

| IC50 [µM] | Compound |
| --- | --- |
| 0.1 to 1 | CCn1nccc1C(=O)N[C@H](c1cn2nc(CC3C[C@@H](C(F)(F)F)CNC3=O)ccc2n1)C1CCC2(CC1)CC2 (single isomer, unassigned) [Compound 188] |
| 0.1 to 1 | CCn1nccc1C(=O)N[C@H](c1cn2nc(C[C@H]3C[C@@H](C(F)(F)F)CNC3=O)c(C#N)cc2n1)C1CCC(F)(F)CC1 [Compound 81] |
| < 0.1 | CCn1nccc1C(=O)N[C@H](c1cn2nc(CC3C[C@@H](C(F)(F)F)CNC3=O)c(OC(C)C)cc2n1)C1CCC(F)(F)CC1 (stereo partly drawn) [Compound 185, N-((1S)-(4,4-difluorocyclohexyl)(7-isopropoxy-6-(((5R)-2-oxo-5-(trifluoromethyl)piperidin-3-yl)methyl)imidazo[1,2-b]pyridazin-2-yl)methyl)-1-ethyl-1H-pyrazole-5-carboxamide] |
| 0.1 to 1 | CCn1nccc1C(=O)N[C@H](c1cn2nc(CC3CCCNC3=O)ccc2n1)C1CCC(F)(F)CC1 (single isomer, unassigned) [Compound 13, N-((1 S)-(4,4-difluorocyclohexyl)(6-((2-oxopiperidin-3-yl)methyl)imidazo[1,2-b]pyridazin-2-yl)methyl)-1-ethyl-1H-pyrazole-5-carboxamide] |
| > 1 | CCn1nccc1C(=O)N[C@H](c1cn2nc(CC3CC(C(F)(F)F)CNC3=O)ccc2n1)C1CCCCCC1 (single isomer, unassigned) [Compound 195] |
| 0.1 to 1 | O=C(N[C@H](c1cn2nc(CC3C[C@@H](C(F)(F)F)CNC3=O)ccc2n1)C1CCC(F)(F)CC1)c1conc1CCF (stereo partly drawn) [Compound 110, N-((1S)-(4,4-difluorocyclohexyl)(6-(((5R)-2-oxo-5-(trifluoromethyl)piperidin-3-yl)methyl)imidazo[1,2-b]pyridazin-2-yl)methyl)-3-(2-fluoroethyl)isoxazole-4-carboxamide] |
| > 1 | CCn1nccc1C(=O)N[C@H](c1cn2nc(CC3C[C@@H](C(F)(F)F)NC3=O)ccc2n1)C1CCCCCC1 (single isomer, unassigned) [Compound 6] |
| < 0.1 | O=C(N[C@H](c1cn2nc(CC3C[C@@H](C(F)(F)F)CNC3=O)ccc2n1)C1CCC(F)(F)CC1)c1conc1C1CC1(F)F (single isomer, unassigned) [Compound 127] |
| 0.1 to 1 | O=C(N[C@H](c1cn2nc(C[C@H]3C[C@@H](C(F)(F)F)NC3=O)ccc2n1)C1CCC(F)(F)CC1)c1nonc1C1CC1 (single isomer, unassigned) [Compound 19] |
| > 1 | CCn1nccc1C(=O)N[C@H](c1cn2nc(CC3C[C@@H](C(F)(F)F)CNC3=O)ccc2n1)[C@@H]1CCCC(F)(F)C1 (stereo partly drawn) [Compound 194, N-((1S)—((R)-3,3-difluorocyclohexyl)(6-(((5R)-2-oxo-5-(trifluoromethyl)piperidin-3-yl)methyl)imidazo[1,2-b]pyridazin-2-yl)methyl)-1-ethyl-1H-pyrazole-5-carboxamide] |
| < 0.1 | O=C(N[C@H](c1cn2nc(CC3C[C@@H](C(F)(F)F)CNC3=O)ccc2n1)[C@@H]1CCCC(F)(F)C1)c1nonc1C1CC1 (stereo partly drawn) [Compound 145, 4-cyclopropyl-N—((S)-((R)-3,3-difluorocyclohexyl)(6-(((5R)-2-oxo-5-(trifluoromethyl)piperidin-3-yl)methyl)imidazo[1,2-b]pyridazin-2-yl)methyl)-1,2,5-oxadiazole-3-carboxamide] |
| < 0.1 | CCn1nccc1C(=O)N[C@H](c1cn2nc(CC3C[C@@H](C(F)(F)F)CNC3=O)c(N(C)C3CC3)cc2n1)C1CCC(F)(F)CC1 (single isomer, unassigned) [Compound 91] |
| 0.1 to 1 | O=C(N[C@H](c1cn2nc(CC3C[C@@H](C(F)(F)F)CNC3=O)ccc2n1)C1CCC(F)(F)CC1)c1ccnn1C1CC1(F)F (single isomer, unassigned) [Compound 99] |
| > 1 | Cc1nonc1C(=O)N[C@H](c1cn2nc(C[C@H]3C[C@@H](C(F)(F)F)NC3=O)ccc2n1)C(C1CC1)C1CC1 [Compound 21, N—((S)-2,2-dicyclopropyl-1-(6-(((3R,5S)-2-oxo-5-(trifluoromethyl)pyrrolidin-3-yl)methyl)imidazo[1,2-b]pyridazin-2-yl)ethyl)-4-methyl-1,2,5-oxadiazole-3-carboxamide] |

Continued, compound first:

| Compound | IC50 [µM] |
| --- | --- |
| CCn1nccc1C(=O)N[C@H](c1cn2nc(CC3C[C@@H](C(F)(F)F)CNC3=O)ccc2n1)C1CCC(F)(F)CC1 (stereo partly drawn) [Compound 193, N-((1S)-(4,4-difluorocyclohexyl)(6-(((5R)-2-oxo-5-(trifluoromethyl)piperidin-3-yl)methyl)imidazo[1,2-b]pyridazin-2-yl)methyl)-1-ethyl-1H-pyrazole-5-carboxamide] | > 1 |
| CC[C@@H](c1ccc(F)cc1)[C@H](NC(=O)c1ccnn1CC)c1cn2nc(CC3C[C@@H](C(F)(F)F)CNC3=O)ccc2n1 (stereo partly drawn) [Compound 168, 1-ethyl-N-((1S,2S)-2-(4-fluorophenyl)-1-(6-(((3R.5R)-2-oxo-5-(trifluoromethyl)piperidin-3-yl)methyl)imidazo[1,2-b]pyridazin-2-yl)butyl)-1H-pyrazole-5-carboxamide] | < 0.1 |
| CCn1nccc1C(=O)N[C@H](c1cn2nc(CC3C[C@@H](C(F)(F)F)CNC3=O)c(C(F)(F)F)cc2n1)[C@H]1CC[C@H](C)CC1 (single isomer, unassigned) [Compound 78] | 0.1 to 1 |
| CCn1nccc1C(=O)N[C@H](c1cn2nc(CC3CCCNC3=O)ccc2n1)C1CCCCCC1 (single isomer, unassigned) [Compound 11] | > 1 |
| O=C(N[C@H](c1cn2nc(CC3C[C@@H](C(F)(F)F)CNC3=O)ccc2n1)C1CCC(F)(F)CC1)c1conc1C12CC(F)(C1)C2 (stereo partly drawn) [Compound 140, N-((1S)-(4,4-difluorocyclohexyl)(6-(((5R)-2-oxo-5-(trifluoromethyl)piperidin-3-yl)methyl)imidazo[1,2-b]pyridazin-2-yl)methyl)-3-(3-fluorobicyclo[1.1.1]pentan-1-yl)isoxazole-4-carboxamide] | 0.1 to 1 |
| O=C1NC[C@H](C(F)(F)F)CC1Cc1ccc2nc([C@@H](NC(=O)C3CC34CC(F)(F)C4)C3CCC(F)(F)CC3)cn2n1 (single isomer, unassigned) [Compound 130] | > 1 |
| CCn1nccc1C(=O)N[C@H](c1cn2nc(CC3C[C@@H](C(F)(F)F)CNC3=O)ccc2n1)C1CC2(CCC2)C1 (single isomer, unassigned) [Compound 190] | > 1 |
| CCn1nccc1C(=O)N[C@H](c1cn2nc(CC3C[C@@H](C(F)(F)F)CNC3=O)c(Cl)cc2n1)C1CCC(F)(F)CC1 (single isomer, unassigned) [Compound 80] | 0.1 to 1 |
| CCn1nccc1C(=O)N[C@H](c1cn2nc(CC3CCC(C(F)(F)F)NC3=O)ccc2n1)C(C1CC1)C1CC1 (single isomer, unassigned) [Compound 43] | > 1 |
| O=C(N[C@H](c1cn2nc(CC3C[C@@H](C(F)(F)F)CNC3=O)ccc2n1)C1CCC(F)(F)CC1)c1cnnn1CCF (stereo partly drawn) [Compound 109, N-((1S)-(4,4-difluorocyclohexyl)(6-(((5R)-2-oxo-5-(trifluoromethyl)piperidin-3-yl)methyl)imidazo[1,2-b]pyridazin-2-yl)methyl)-1-(2-fluoroethyl)-1H-1,2,3-triazole-5-carboxamide] | 0.1 to 1 |
| O=C(N[C@H](c1cn2nc(CC3C[C@@H](C(F)(F)F)CNC3=O)ccc2n1)C1CCC(F)(F)CC1)c1nonc1C(F)(F)F (stereo partly drawn) [Compound 113, N-((1S)-(4,4-difluorocyclohexyl)(6-(((5R)-2-oxo-5-(trifluoromethyl)piperidin-3-yl)methyl)imidazo[1,2-b]pyridazin-2-yl)methyl)-4-(trifluoromethyl)-1,2,5-oxadiazole-3-carboxamide] | 0.1 to 1 |
| CC(C)n1nncc1C(=O)N[C@H](c1cn2nc(CC3C[C@@H](C(F)(F)F)CNC3=O)ccc2n1)[C@H]1CC[C@H](C)CC1 (stereo partly drawn) [Compound 163, N-((1S)-((1R.4S)-4-methylcyclohexyl)(6-(((5R)-2-oxo-5-(trifluoromethyl)piperidin-3-yl)methyl)imidazo[1,2-b]pyridazin-2-yl)methyl)-1-isopropyl-1H-1,2,3-triazole-5-carboxamide] | 0.1 to 1 |
| CCn1nccc1C(=O)NC(c1cn2ncc(CC3CC(F)(F)CNC3=O)cc2n1)C1CCC(C)CC1 (single isomer, unassigned) [Compound 210] | > 1 |
| CCn1nccc1C(=O)NC(c1cn2nc(CC3CC(C)CNC3=O)ccc2n1)C1CCC(C)CC1 (single isomer, unassigned) [Compound 50] | > 1 |
| CCn1nccc1C(=O)N[C@H](c1cn2nc(C(C)C3C[C@@H](C(F)(F)F)CNC3=O)ccc2n1)C(C1CC1)C1CC1 (single isomer, unassigned) [Compound 55] | 0.1 to 1 |
| CCCn1nccc1C(=O)N[C@H](c1cn2nc(CC3C[C@@H](C(F)(F)F)CNC3=O)ccc2n1)C1CCC(F)(F)CC1 (stereo partly drawn) [Compound 128, N-((1S)-(4,4-difluorocyclohexyl)(6-(((5R)-2-oxo-5-(trifluoromethyl)piperidin-3-yl)methyl)imidazo[1,2-b]pyridazin-2-yl)methyl)-1-propyl-1H-pyrazole-5-carboxamide] | 0.1 to 1 |
| CCN(C)c1cc2nc([C@@H](NC(=O)c3ccnn3CC)C3CCC(F)(F)CC3)cn2nc1CC1C[C@@H](C(F)(F)F)CNC1=O (single isomer, unassigned) [Compound 88] | < 0.1 |
